Test results as given in US10172830B2, “Pyrazolone compounds having human neutrophil elastase inhibitory properties” (CHIESI FARMACEUTICI S.P.A., priority 2016, dated 2019).

Target: T1, human neutrophil elastase (HNE) (Homo sapiens, UniProt P08246)
T1 construct: purchased Sigma E8140
T1 sequence (P08246 30-247 limits assumed): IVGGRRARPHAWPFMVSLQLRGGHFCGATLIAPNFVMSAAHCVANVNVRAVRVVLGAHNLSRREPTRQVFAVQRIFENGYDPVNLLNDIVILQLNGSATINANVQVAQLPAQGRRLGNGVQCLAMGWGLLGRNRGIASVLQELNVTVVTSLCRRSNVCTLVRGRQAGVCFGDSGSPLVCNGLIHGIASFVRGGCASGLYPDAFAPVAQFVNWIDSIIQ
Experiment: HNE enzyme assay (human neutrophil elastase enzyme activity assay)
Assay type: biochemical
Conditions: human leukocyte elastase 0.00072 U/mL; substrate MeOSuc-Ala-Ala-Pro-Val-AMC 100 μM; 25° C. for 30 minutes; at least two separate experiments; read-out: HNE inhibition (HNE enzyme inhibition, IC50 values)
Protocol: Compounds of the present invention were tested for potency in a human neutrophil elastase (HNE) enzyme activity assay.
Assays were performed in 96-well plates in a total assay volume of 100 μL. The final concentration of elastase enzyme (human leukocyte elastase, Sigma E8140) was 0.00072 U/mL. The peptide substrate (MeOSuc-Ala-Ala-Pro-Val-AMC, Calbiochem #324740) was used at a final concentration of 100 μM. The final concentration of DMSO was 1% in the assay buffer (0.05M Tris.HCl, 0.1M NaCl, 0.1M CaCl2, 0.0005% brij-35, pH 7.5). The enzymatic reaction was started by addition of the enzyme and incubated at 25° C. for 30 minutes. After incubation, the reaction was stopped by addition of soybean trypsin inhibitor (Sigma T9003) at a final concentration of 50 μg/well. Fluorescence was measured using a Molecular Devices fluorescence plate reader using 380 nm excitation and 460 nm emission wavelengths.
A dose response to each compound was performed and the effect of compound in each experiment was expressed as a percentage inhibition of the control enzyme fluorescence. Dose response curves were plotted and compound potency (IC50) was determined. Compounds were tested in at least two separate experiments.

Structure (SMILES)	IC50
C[C@H](NC(=O)c1c(-c2ccnn2-c2ccc(C#N)cc2)n(C)n(-c2cccc(C(F)(F)F)c2)c1=O)C(=O)N1CCCN(C)CC1 [Example 17, 2′-(4-Cyano-phenyl)-2-methyl-5-oxo-1-(3-trifluoromethyl-phenyl)-2,5-dihydro-1H,2′H-[3,3′]bipyrazolyl-4-carboxylic acid [(S)-1-methyl-2-(4-methyl-[1,4]diazepan-1-yl)-2-oxo-ethyl]-amide]	< 1 nM
Cn1c(-c2ccnn2-c2ccc(C#N)cc2)c(C(=O)NC2CC[N+](C)(C)CC2)c(=O)n1-c1cccc(C(F)(F)F)c1 [Example 18, 4-{[2′-(4-Cyano-phenyl)-2-methyl-5-oxo-1-(3-trifluoromethyl-phenyl)-2,5-dihydro-1H,2′H-[3,3′]bipyrazolyl-4-carbonyl]-amino}-1,1-dimethyl-piperidinium benzene sulphonate]	< 1 nM
C[C@H](NC(=O)c1c(-c2ccnn2-c2ccc(C#N)cc2)n(C)n(-c2cccc(C(F)(F)F)c2)c1=O)c1cc[n+](C)cc1 [Example 19, 4-((S)-1-{[2′-(4-Cyano-phenyl)-2-methyl-5-oxo-1-(3-trifluoromethyl-phenyl)-2,5-dihydro-1H,2′H-[3,3′]bipyrazolyl-4-carbonyl]-amino}-ethyl)-1-methyl-pyridinium benzene sulphonate]	< 1 nM
Cn1c(-c2ccnn2-c2ccc(C#N)cc2)c(C(=O)NCCC[N+](C)(C)C)c(=O)n1-c1cccc(C(F)(F)F)c1 [Example 20, (3-{[2′-(4-Cyano-phenyl)-2-methyl-5-oxo-1-(3-trifluoromethyl-phenyl)-2,5-dihydro-1H,2′H-[3,3′]bipyrazolyl-4-carbonyl]-amino}-propyl)-trimethyl-ammonium benzene sulphonate]	1 to 10 nM
Cn1c(-c2ccnn2-c2ccc(C#N)cc2)c(C(=O)NCC[N+](C)(C)C)c(=O)n1-c1cccc(C(F)(F)F)c1 [Example 21, (2-{[2′-(4-Cyano-phenyl)-2-methyl-5-oxo-1-(3-trifluoromethyl-phenyl)-2,5-dihydro-1H,2′H-[3,3′]bipyrazolyl-4-carbonyl]-amino}-ethyl)-trimethyl-ammonium benzene sulphonate]	1 to 10 nM
Cn1c(-c2ccnn2-c2ccc(C#N)cc2)c(C(=O)NC2CC[N+]3(CCCC3)CC2)c(=O)n1-c1cccc(C(F)(F)F)c1 [Example 22, 8-{[2′-(4-Cyano-phenyl)-2-methyl-5-oxo-1-(3-trifluoromethyl-phenyl)-2,5-dihydro-1H,2′H-[3,3′]bipyrazolyl-4-carbonyl]-amino}-5-azonia-spiro[4.5]decane bromide]	< 1 nM
Cn1c(-c2ccnn2-c2ccc(C#N)cc2)c(C(=O)N[C@@H]2C[C@@H]3C[N+](C)(C)C[C@@H]3C2)c(=O)n1-c1cccc(C(F)(F)F)c1 [Example 23, (3aS,5R,6aR)-5-{[2′-(4-Cyano-phenyl)-2-methyl-5-oxo-1-(3-trifluoromethyl-phenyl)-2,5-dihydro-1H,2′H-[3,3′]bipyrazolyl-4-carbonyl]-amino}-2,2-dimethyl-octahydro-cyclopenta[c]pyrrolium benzene sulphonate]	< 1 nM
Cn1c(-c2ccnn2-c2ccc(C#N)cc2)c(C(=O)N[C@H]2CC[C@H](C[N+](C)(C)C)CC2)c(=O)n1-c1cccc(C(F)(F)F)c1 [Example 24, (Trans-4-{[2′-(4-cyano-phenyl)-2-methyl-5-oxo-1-(3-trifluoromethyl-phenyl)-2,5-dihydro-1H,2′H-[3,3′]bipyrazolyl-4-carbonyl]-amino}-cyclohexylmethyl)-trimethyl-ammonium benzene sulphonate]	< 1 nM
Cn1c(-c2ccnn2-c2ccc(C#N)cc2)c(C(=O)N[C@H]2CC[C@H](C[N+](C)(C)Cc3ccccc3)CC2)c(=O)n1-c1cccc(C(F)(F)F)c1 [Example 25, Benzyl-(trans-4-{[2′-(4-cyano-phenyl)-2-methyl-5-oxo-1-(3-trifluoromethyl-phenyl)-2,5-dihydro-1H,2′H-[3,3′]bipyrazolyl-4-carbonyl]-amino}-cyclohexylmethyl)-dimethyl-ammonium bromide]	< 1 nM
C[C@H](NC(=O)c1c(-c2ccnn2-c2ccc(C#N)cc2)n(C)n(-c2cccc(C(F)(F)F)c2)c1=O)C(=O)N1CC[N+](C)(C)CC1 [Example 26, 4-((S)-2-{[2′-(4-Cyano-phenyl)-2-methyl-5-oxo-1-(3-trifluoromethyl-phenyl)-2,5-dihydro-1H,2′H-[3,3′]bipyrazolyl-4-carbonyl]-amino}-propionyl)-1,1-dimethyl-piperazin-1-ium benzene sulphonate]	< 1 nM
C[C@H](NC(=O)c1c(-c2ccnn2-c2ccc(C#N)cc2)n(C)n(-c2cccc(C(F)(F)F)c2)c1=O)C(=O)N1CC[N+](C)(Cc2ccccc2)CC1 [Example 27, 1-Benzyl-4-((S)-2-{[2′-(4-cyano-phenyl)-2-methyl-5-oxo-1-(3-trifluoromethyl-phenyl)-2,5-dihydro-1H,2′H-[3,3′]bipyrazolyl-4-carbonyl]-amino}-propionyl)-1-methyl-piperazin-1-ium bromide]	< 1 nM
Cn1c(-c2ccnn2-c2ccc(C#N)cc2)c(C(=O)NC2C[C@H]3CC[C@@H](C2)[N+]3(C)C)c(=O)n1-c1cccc(C(F)(F)F)c1 (stereo partly drawn) [Example 28, (1S,3S,5R)-3-{[2′-(4-Cyano-phenyl)-2-methyl-5-oxo-1-(3-trifluoromethyl-phenyl)-2,5-dihydro-1H,2′H-[3,3′]bipyrazolyl-4-carbonyl]-amino}-8,8-dimethyl-8-azonia-bicyclo[3.2.1]octane benzene sulphonate]	< 1 nM
Cn1c(-c2ccnn2-c2ccc(C#N)cc2)c(C(=O)NC[C@H]2CC[C@H]([N+](C)(C)C)CC2)c(=O)n1-c1cccc(C(F)(F)F)c1 [Example 29, [Trans-4-({[2′-(4-cyano-phenyl)-2-methyl-5-oxo-1-(3-trifluoromethyl-phenyl)-2,5-dihydro-1H,2′H-[3,3′]bipyrazolyl-4-carbonyl]-amino}-methyl)-cyclohexyl]-trimethyl-ammonium benzene sulphonate]	1 to 10 nM
C[C@H](NC(=O)c1c(-c2ccnn2-c2ccc(C#N)cc2)n(C)n(-c2cccc(C(F)(F)F)c2)c1=O)c1ncc(C[N+](C)(C)C)o1 [Example 30, [2-((S)-1-{[2′-(4-Cyano-phenyl)-2-methyl-5-oxo-1-(3-trifluoromethyl-phenyl)-2,5-dihydro-1H,2′H-[3,3′]bipyrazolyl-4-carbonyl]-amino}-ethyl)-oxazol-5-ylmethyl]-trimethyl-ammonium benzene sulphonate]	< 1 nM
C[C@H](NC(=O)c1c(-c2ccnn2-c2ccc(C#N)cc2)n(C)n(-c2cccc(C(F)(F)F)c2)c1=O)c1ncc(C[N+](C)(C)Cc2ccccc2)o1 [Example 31, Benzyl-[2-((S)-1-{[2′-(4-cyano-phenyl)-2-methyl-5-oxo-1-(3-trifluoromethyl-phenyl)-2,5-dihydro-1H,2′H-[3,3′]bipyrazolyl-4-carbonyl]-amino}-ethyl)-oxazol-5-ylmethyl]-dimethyl-ammonium bromide]	< 1 nM
Cc1cc(C[N+](C)(C)Cc2cnc([C@H](C)NC(=O)c3c(-c4ccnn4-c4ccc(C#N)cc4)n(C)n(-c4cccc(C(F)(F)F)c4)c3=O)o2)no1 [Example 32, [2-((S)-1-{[2′-(4-Cyano-phenyl)-2-methyl-5-oxo-1-(3-trifluoromethyl-phenyl)-2,5-dihydro-1H,2′H-[3,3′]bipyrazolyl-4-carbonyl]-amino}-ethyl)-oxazol-5-ylmethyl]-dimethyl-(5-methyl-isoxazol-3-ylmethyl)-ammonium chloride]	< 1 nM
Cn1c(-c2ccnn2-c2ccc(C#N)cc2)c(C(=O)NC2CCN(C(=O)C[N+](C)(C)C)CC2)c(=O)n1-c1cccc(C(F)(F)F)c1 [Example 33, [2-(4-{[2′-(4-Cyano-phenyl)-2-methyl-5-oxo-1-(3-trifluoromethyl-phenyl)-2,5-dihydro-1H,2′H-[3,3′]bipyrazolyl-4-carbonyl]-amino}-piperidin-1-yl)-2-oxo-ethyl]-trimethyl-ammonium benzene sulphonate]	< 1 nM
Cn1c(-c2ccnn2-c2ccc(C#N)cc2)c(C(=O)OC2CCN(C(=O)C[N+](C)(C)C)CC2)c(=O)n1-c1cccc(C(F)(F)F)c1 [Example 34, (2-{4-[2′-(4-Cyano-phenyl)-2-methyl-5-oxo-1-(3-trifluoromethyl-phenyl)-2,5-dihydro-1H,2′H-[3,3′]bipyrazolyl-4-carbonyloxy]-piperidin-1-yl}-2-oxo-ethyl)-trimethyl-ammonium benzene sulphonate]	1 to 10 nM
C[C@H](NC(=O)c1c(-c2ccnn2-c2ccc(C#N)cc2)n(C)n(-c2cccc(C(F)(F)F)c2)c1=O)C(=O)N1CCC([N+](C)(C)Cc2ccccc2)CC1 [Example 35, Benzyl-[1-((S)-2-{[2′-(4-cyano-phenyl)-2-methyl-5-oxo-1-(3-trifluoromethyl-phenyl)-2,5-dihydro-1H,2′H-[3,3′]bipyrazolyl-4-carbonyl]-amino}-propionyl)-piperidin-4-yl]-dimethyl-ammonium bromide]	< 1 nM
